In patent publication US7625928B2, “Nitroxide radioprotector formulations and methods of use” (priority 2002, dated 2009):

Assay: In vitro percutaneous absorption of Tempol after multiple applications of Formulation V, Franz static diffusion cells, 30-minute exposures (Example II)
Assay type: in vitro ADME, human
Settings: test 3, three applications, result in words
Description: The skin was wiped with two dry cotton swabs after each application. Upon completion of the final application and skin wiping, the stratum corneum was removed from the skin. […] Franz static diffusion cells (15 mm diameter orifice, O-ring joint, Crown Bio Scientific, Clinton, N.J.) were mounted on 9-cell manifolds and maintained at a constant temperature of 32° C. by use of re-circulating water baths. […] Each diffusion cell was assembled by placing the excised human abdominal skin from a single donor dermal-side down and then a Teflon® O-ring (which rested in the groove of the donor side, top half, of the diffusion cell. The donor side (top half) of the diffusion cell was then placed on top of the O-ring resting on the skin and held in place by use of a pinch clamp. The joint between the donor and receptor compartments of each cell was wrapped with Parafilm® to prevent evaporation of the receptor solution. […] Air bubbles were dispelled from under the skin. […] The formulation was applied in an alternating fashion to 6 diffusion cells at 0.18 mL of formulation per cell. The diffusion cell sampling port was sealed with […] ® to prevent evaporation. […] If appropriate, the cell was re-dosed with test formulation after removal of the previous dose using two cotton swabs wiped across the skin surface. […]

CC1(C)CC(O)CC(C)(C)N1[O] [Tempol, 4-hydroxy-2,2,6,6-tetramethylpiperidine-1-oxyl]
third application levels versus levels in the second time point: twice as high
